Assay results: the NIST ThermoML archive (doi:10.1021/je0502593)
± gives the expanded uncertainty stated by the source.

Tests used:
[1] = xn = mol fraction of the nth substance listed; details: 101 kPa, Liquid, Capillary tube (Ostwald / Ubbelohde) method, x1 = 0.364
[2] = 101.33 kPa, Liquid, Capillary tube (Ostwald / Ubbelohde) method

FC(F)(F)C1(F)C(F)(F)C(F)(F)C(F)(F)C(F)(F)C1(F)F [perfluoro(methylcyclohexane)] + CC1CCCCC1
[1]
Details | viscosity [mPa·s]
320.16 K | 0.7472 ± 0.014
320.19 K | 0.728 ± 0.014
320.34 K | 0.689 ± 0.0069
320.5 K | 0.6723 ± 0.0061
320.74 K | 0.6544 ± 0.0058
321 K | 0.6428 ± 0.0057
321.39 K | 0.6292 ± 0.0055
321.96 K | 0.6151 ± 0.0054
322.62 K | 0.6018 ± 0.0053
324.05 K | 0.5798 ± 0.0052
325.5 K | 0.5617 ± 0.005
326.98 K | 0.5452 ± 0.0049
328.41 K | 0.5313 ± 0.0048
330.08 K | 0.517 ± 0.0047
331.6 K | 0.5034 ± 0.0046
333.21 K | 0.4923 ± 0.0045
334.85 K | 0.4806 ± 0.0044
336.69 K | 0.4679 ± 0.0044
338.48 K | 0.4558 ± 0.0043
340.38 K | 0.4438 ± 0.0042

CC1CCCCC1 [methylcyclohexane]
[2]
Details | viscosity [mPa·s]
298.61 K | 0.7341 ± 0.0061
303.63 K | 0.6844 ± 0.0058
308.95 K | 0.636 ± 0.0054
317.71 K | 0.5669 ± 0.005
323.66 K | 0.5268 ± 0.0047
328.77 K | 0.4964 ± 0.0045
333.69 K | 0.469 ± 0.0043

FC(F)(F)C1(F)C(F)(F)C(F)(F)C(F)(F)C(F)(F)C1(F)F [perfluoro(methylcyclohexane)]
[2]
Details | viscosity [mPa·s]
319.2 K | 1.031 ± 0.0097
320.16 K | 1.011 ± 0.0095
323.18 K | 0.9582 ± 0.0091
328.13 K | 0.8787 ± 0.0084
333.11 K | 0.8074 ± 0.0078
